Assay results from patent publication US20150017380A1, “ABSORBENT FOOD PAD HAVING DISCRETE AIRFLOW PASSAGES” (Paper-Pak Industries, priority 2013, published 2015).

Assay: SO2 generation of Na2S2O5 in an open environment
Assay type: physicochemical
Protocol: FIG. 6A and FIG. 6B show the results of a test that was performed to establish how Na2S2O5 reacts with the environment, and the effect of changes in relative humidity. 0.1 g of Na2S2O5 on sampling “boats” were placed on top of a counter; i.e., in an “open” environment. The concentration of SO2 gas (in parts per million, ppm) in the air at about 2.5 cm (about 1″) above the Na2S2O5 was measured daily for more than 50 days of testing. The relative humidity was also measured for each day of testing.

O=S([O-])S(=O)(=O)[O-].[Na+].[Na+] [Na2S2O5, sodium metabisulfite]
average SO2 concentration generated (0.1 grams of Na2S2O5, open environment, air about 2.5 cm above the sample, up to 50 days): 0.5 ppm | duration of continuous SO2 generation (conclusion from the several tests): more than 50 days
